# Data taken from ChEMBL document CHEMBL1201862, “PubChem BioAssay data set” (2004).
# Active and inactive are the calls of the source.
# Columns and labels:
# NIH3T3 = test: NIH-3T3 viability with fluconazole co-treatment – cell-based, Alamar Blue, dry powder, set 2, cytotoxicity control for antifungal resistance reversal project, dose response (AID 488911); assay type: functional; conditions: Mus musculus
# Candida albicans = test: resistant Candida growth with fluconazole co-treatment – CaCi-8 strain, Alamar Blue, dry powder, set 2, dose response (AID 488909); assay type: functional, organism-based
# [1] = NIH-3T3 fibroblast cytotoxicity, dose response, cytotoxicity control, cell-based, fluorescence, Alamar Blue, secondary assay (AID 2327); assay type: functional;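 note: NIH-3T3 mouse fibroblasts cultured with fluconazole at 8 µg/mL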
# [2] = molecular target: Serine/threonine-protein phosphatase (Candida dubliniensis (strain CD36 / CBS 7987 / NCPF 3949 / NRRLY-17841) (Yeast), UniProt B9W6M3); test: blockers of CaCl2-induced CDRE-lacZ signaling – S. cerevisiae, luminescence, secondary, dose response (AID 2388); assay type: functional, cell-based;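 note: yeast reporter cells carrying a calcineurin-responsive lacZ construct stimulated with calcium chloride; luminescent beta-galactosidase reporter signal in whole cells rather than isolated phosphatase activity; potency for inhibition where a drop in reporter signal means calcineurin blockade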
# HEK293 [3] = test: HEK293T cell viability loss, resazurin readout – resazurin fluorescence, cytotoxicity control for NF-kB activator project, SAR follow-up (AID 493251); assay type: functional, cell-based; conditions: Homo sapiens
# HEK293 [4] = test: SAR Analysis of small molecule inhibitors of T-cell specific antigen receptor-induced NF-kB activation in a HEK-293T cell line using a luminescence assay - Set 2. [Related pubchem assays (depositor defined):AID435003, AID435012, AID489026]; assay type: functional, cell-based; conditions: Homo sapiens
# HEK293 [5] = test: EBV LMP1 TES2 canonical NF-kB signalling blockers – cell-based, HEK293, luciferase, cherry-pick, dose response (AID 588343); assay type: functional; conditions: Homo sapiens
# cells [6] = assay type: functional, cell-based
# [7] = reduction of Shn3 3'UTR-driven luciferase in osteoblasts – cell-based, Clone20 osteoblasts, firefly luciferase, cherry-picked, dose response (AID 624132); assay type: functional;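 note: firefly luciferase luminescence from reporter carrying the Shn3 3'UTR in osteoblasts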
# [8] = HEK-293T viability loss after treatment – luminescence, T-cell screen hits, cytotoxicity control for TCR NF-kB inhibitor project, dose response (AID 489026); assay type: functional, cell-based;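 note: cells exposed to compound about 14 hours before the viability readout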
# INS1 = test: INS-1E survival protection against cytokine death – cell-based, luminescence, retest, dose response (AID 449756); assay type: functional; conditions: Rattus norvegicus;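 note: cell death triggered by IL-1 beta plus TNF-alpha plus IFN-gamma mixture; protective hits raise ATP signal compared with cytokine alone wells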
# [9] = loss of viability in HepG2 cells – cell-based, CellTiter-Glo, cherry-picked, cytotoxicity control for Shn3 inhibitor project, dose response (AID 624134); assay type: functional
# Streptococcus = test: GAS UMAA2166 growth inhibition – luminescence, BacTiterGlo, counter-screen for streptokinase expression inhibitor project, dose response (AID 1915); assay type: functional, organism-based;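 note: potency for reduction of bacterial viability or growth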
# [10] = non-specific 3'UTR reporter inhibition in Clone20-Shn3RL – cell-based, Renilla luciferase, cherry-picked, counter-screen for Shn3 inhibitor project, dose response (AID 624133); assay type: functional
# [11] = NIH3T3 cell viability loss – ATP luminescence, mouse fibroblasts, counter-screen, dose response (AID 2010); assay type: functional, cell-based;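 note: cells exposed to compound for about 90 hours before reading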
# Jurkat = test: SAR Analysis of small molecule inhibitors of T-cell specific antigen receptor-induced NF-kB activation in a Jurkat cell line using a luminescence assay - Set 2. [Related pubchem assays (depositor defined):AID435003, AID435012, AID465]; assay type: functional, cell-based; conditions: Homo sapiens
# [12] = molecular target: ATP-dependent molecular chaperone HSP82 (Candida albicans (strain WO-1) (Yeast), UniProt C4YTQ8); test: steroid-induced GRE reporter decrease in yeast – S. cerevisiae, luminescence, Hsp90 inhibitor project, dose response (AID 2400); assay type: functional, cell-based;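 note: beta-galactosidase luminescence from glucocorticoid response element reporter as proxy for Hsp90 function; inhibitor potency where signal loss means Hsp90 inhibition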
# [13] = system: Streptococcus sp. 'group A'; test: Streptococcus pyogenes SK(-)GAS viability under kanamycin – luminescence, BacTiterGlo, confirmation, counter-screen for streptokinase expression inhibitor project, dose response (AID 1900); assay type: functional, organism-based
# [14] = Trypanosoma cruzi growth suppression in host cells – NIH3T3 host cells, beta-gal luminescence, confirmation (AID 2044); assay type: functional, cell-based;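 note: intracellular parasites grown in NIH/3T3 mouse fibroblasts as host cells; luminescent beta-galactosidase reporter signal from transgenic T. cruzi replicating inside host cells; inhibitors lower the luminescence signal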
# cells [15] = assay type: functional, cell-based; remark: listed apart in the source
# [16] = fluconazole-exposed Candida albicans growth modulators – fluorescence, retest, confirmation (AID 2467); assay type: functional, cell-based
# CAAX prenyl protease 2 [17] = molecular target: T1, CAAX prenyl protease 2 (Saccharomyces cerevisiae S288c, UniProt Q03530); test: inhibition of Rce1p peptide cleavage – biochemical, plate reader, dry powder retest, dose response (AID 588851)
# T1 sequence (Q03530 whole entry): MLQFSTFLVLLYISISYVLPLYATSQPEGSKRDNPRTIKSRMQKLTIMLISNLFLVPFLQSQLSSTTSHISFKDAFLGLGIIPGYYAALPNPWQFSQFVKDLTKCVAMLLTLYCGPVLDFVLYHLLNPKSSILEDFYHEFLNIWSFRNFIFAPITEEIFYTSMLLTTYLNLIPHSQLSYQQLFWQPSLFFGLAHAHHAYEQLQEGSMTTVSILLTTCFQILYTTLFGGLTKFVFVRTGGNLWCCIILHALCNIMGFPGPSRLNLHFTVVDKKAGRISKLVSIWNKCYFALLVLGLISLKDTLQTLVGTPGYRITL
# CAAX prenyl protease 2 [18] = molecular target: CAAX prenyl protease 2 (Homo sapiens, UniProt Q9Y256); test: inhibition of Ras-converting CAAX endoprotease – biochemical, plate reader, dry powder samples, dose response (AID 588848)
# CAAX prenyl protease 2 (Homo sapiens, UniProt Q9Y256), sequence (Q9Y256 whole entry): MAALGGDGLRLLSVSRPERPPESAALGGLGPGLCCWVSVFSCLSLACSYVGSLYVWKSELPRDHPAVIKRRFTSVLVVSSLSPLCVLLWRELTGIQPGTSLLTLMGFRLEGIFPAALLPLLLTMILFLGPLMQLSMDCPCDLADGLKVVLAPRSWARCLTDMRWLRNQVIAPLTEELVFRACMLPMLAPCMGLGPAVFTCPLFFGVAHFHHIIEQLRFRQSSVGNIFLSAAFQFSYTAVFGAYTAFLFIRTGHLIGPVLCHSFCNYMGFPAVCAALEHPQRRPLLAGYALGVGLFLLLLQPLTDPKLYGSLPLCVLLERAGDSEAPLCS
# Serine/threonine-protein phosphatase, sequence (B9W6M3 whole entry): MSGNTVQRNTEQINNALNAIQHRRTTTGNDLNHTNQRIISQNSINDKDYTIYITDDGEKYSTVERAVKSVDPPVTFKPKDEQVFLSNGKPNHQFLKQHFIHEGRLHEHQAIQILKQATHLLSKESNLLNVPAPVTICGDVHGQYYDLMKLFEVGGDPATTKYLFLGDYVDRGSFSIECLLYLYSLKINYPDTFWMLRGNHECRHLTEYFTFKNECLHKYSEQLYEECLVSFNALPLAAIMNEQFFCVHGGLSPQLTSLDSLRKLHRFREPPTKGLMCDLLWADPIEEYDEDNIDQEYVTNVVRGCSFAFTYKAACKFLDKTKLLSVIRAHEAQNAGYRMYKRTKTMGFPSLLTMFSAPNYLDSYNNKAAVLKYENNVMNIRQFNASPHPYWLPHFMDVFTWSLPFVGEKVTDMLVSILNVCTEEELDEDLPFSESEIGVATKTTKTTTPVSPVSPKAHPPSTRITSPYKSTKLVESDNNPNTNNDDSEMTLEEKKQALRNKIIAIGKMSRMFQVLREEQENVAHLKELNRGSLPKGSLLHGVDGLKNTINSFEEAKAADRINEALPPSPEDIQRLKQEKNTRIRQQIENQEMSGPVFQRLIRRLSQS
# ATP-dependent molecular chaperone HSP82, sequence (C4YTQ8 whole entry): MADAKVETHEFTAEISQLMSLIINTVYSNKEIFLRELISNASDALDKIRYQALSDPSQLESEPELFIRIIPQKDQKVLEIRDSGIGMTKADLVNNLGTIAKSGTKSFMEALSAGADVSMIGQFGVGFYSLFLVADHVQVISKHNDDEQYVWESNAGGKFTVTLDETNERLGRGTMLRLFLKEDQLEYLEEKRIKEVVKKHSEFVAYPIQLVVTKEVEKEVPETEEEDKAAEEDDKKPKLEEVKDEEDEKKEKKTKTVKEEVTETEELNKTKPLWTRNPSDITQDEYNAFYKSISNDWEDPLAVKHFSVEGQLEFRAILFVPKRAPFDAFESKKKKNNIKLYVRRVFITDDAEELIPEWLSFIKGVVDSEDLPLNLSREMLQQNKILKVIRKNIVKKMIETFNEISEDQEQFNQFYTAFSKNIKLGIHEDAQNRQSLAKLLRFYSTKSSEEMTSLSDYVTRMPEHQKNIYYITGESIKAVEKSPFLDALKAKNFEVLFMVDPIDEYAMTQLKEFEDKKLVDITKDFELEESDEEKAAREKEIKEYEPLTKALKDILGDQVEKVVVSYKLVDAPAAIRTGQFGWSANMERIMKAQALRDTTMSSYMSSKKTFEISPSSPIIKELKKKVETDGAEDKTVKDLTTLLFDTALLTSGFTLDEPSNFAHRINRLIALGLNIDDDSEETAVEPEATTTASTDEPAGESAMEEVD
smiles,measurement,setting,value
COc1ccnc(N2CCN(C(=O)c3ccc(Cl)cc3)CC2)c1,AC50,NIH3T3,96.1 µM (active)
same,AC50,Candida albicans,30.4 µM (active)
CCCCC(=O)NC(c1ccc(Cl)cc1Cl)c1ccc2cccnc2c1O (stereo not drawn),EC50,[1],13.3 µM (active)
same,EC50,[2],> 180 µM (inactive)
same,IC50,HEK293 [3],26.8 µM (inactive)
same,IC50,HEK293 [4],3.23 µM (active)
same,AC50,HEK293 [5],4.57 µM (active)
same,EC50,cells [6],> 350 µM (not active)
same,AC50,[7],0.67 µM (active)
same,IC50,[8],> 80 µM (inactive)
same,AC50,INS1,0.422 µM (active)
same,AC50,[9],> 70 µM (inactive)
same,EC50,Streptococcus,2.12 µM (active)
same,AC50,[10],0.861 µM (active)
same,EC50,[11],0.57 µM (active)
same,IC50,Jurkat,3.7 µM (active)
same,EC50,[12],> 150 µM (inactive)
same,EC50,[13],1.29 µM (active)
same,EC50,[14],0.126 µM (active)
same,EC50,cells [15],8.53 µM (active)
same,EC50,[16],0.698 µM (active)
CN(C)CCCN(C(=O)c1cc(-c2cccs2)nc2ccccc12)c1nc2ccc(F)cc2s1,AC50,CAAX prenyl protease 2 [17],33.6 µM (active)
same,AC50,CAAX prenyl protease 2 [18],49.5 µM (active)
